14 compounds from US5414010A, “Dimeric benzimidazoles as central nervous system agents” (Warner-Lambert Company, priority 1994, dated 1995) can be followed below.

For test [1], the system named is rats. In words: Inhibition of locomotor activity in rats. The class given is in vivo. Conditions: Rattus norvegicus, IP. From the text: (§1) The compounds of Formula I are valuable dopaminergic agents. Dopamine D2 antagonists are established as antipsychotic agents. More recently, the dopamine D3 receptor has been identified. On the basis of the localization of the dopamine D3 receptor in the limbic area of the brain, a selective D3 antagonist should show antipsychotic activity but not have the neurological side effects of D2 antagonists. The tests employed indicate that compounds of Formula I bind selectively to the dopamine D3 receptor. Thus, the compounds of Formula I were tested for their ability to bind to dopamine receptors as measured by their inhibition of [^3 H]spiperone binding to the human D2 and D3 receptors in a receptor assay described by MacKenzie R. G., et al., Characterization of the human D3 dopamine receptor expressed in transfected cell lines, Eur. J. Pharmacol., 266:79 (1994); and for their ability to inhibit locomotor activity in mice and rats, a measure of antipsychotic activity, according to the assay described by McLean J. R., et al., Pharmacology, Biochemistry and Behavior, 8:97- 99 (1978). The above test methods are incorporated herein by reference.

The target in test [2] is T1, human D3 receptors (Homo sapiens, UniProt P35462).
T1 construct: expressed in transfected cells
T1 sequence (P35462 whole entry): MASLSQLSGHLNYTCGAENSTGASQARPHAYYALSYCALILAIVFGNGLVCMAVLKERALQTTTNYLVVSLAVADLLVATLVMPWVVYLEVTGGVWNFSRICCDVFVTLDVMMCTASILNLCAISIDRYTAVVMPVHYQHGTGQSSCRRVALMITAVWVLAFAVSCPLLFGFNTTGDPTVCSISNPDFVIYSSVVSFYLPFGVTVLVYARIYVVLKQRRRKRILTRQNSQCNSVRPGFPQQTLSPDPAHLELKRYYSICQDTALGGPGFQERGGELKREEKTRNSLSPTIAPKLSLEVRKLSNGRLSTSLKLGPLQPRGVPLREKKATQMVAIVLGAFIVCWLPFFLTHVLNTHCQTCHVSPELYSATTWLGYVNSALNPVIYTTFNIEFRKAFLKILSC
In words: Inhibition of [^3 H]spiperone binding to human D3 receptors. The protocol:
as §1, with “Dopamine” for “The compounds of Formula I are valuable dopaminergic agents. Dopamine”, “The tests employed indicate that compounds of Formula I bind selectively to the dopamine D3 receptor.” left out

Test [3] has as its target T2, human D2 receptors (Homo sapiens, UniProt P14416).
T2 construct: expressed in transfected cells
In words: Inhibition of [^3 H]spiperone binding to human D2 receptors. As to the method:
as §1, with “Dopamine” for “The compounds of Formula I are valuable dopaminergic agents. Dopamine”, “The tests employed indicate that compounds of Formula I bind selectively to the dopamine D3 receptor.” left out

T2 sequence (P14416 whole entry): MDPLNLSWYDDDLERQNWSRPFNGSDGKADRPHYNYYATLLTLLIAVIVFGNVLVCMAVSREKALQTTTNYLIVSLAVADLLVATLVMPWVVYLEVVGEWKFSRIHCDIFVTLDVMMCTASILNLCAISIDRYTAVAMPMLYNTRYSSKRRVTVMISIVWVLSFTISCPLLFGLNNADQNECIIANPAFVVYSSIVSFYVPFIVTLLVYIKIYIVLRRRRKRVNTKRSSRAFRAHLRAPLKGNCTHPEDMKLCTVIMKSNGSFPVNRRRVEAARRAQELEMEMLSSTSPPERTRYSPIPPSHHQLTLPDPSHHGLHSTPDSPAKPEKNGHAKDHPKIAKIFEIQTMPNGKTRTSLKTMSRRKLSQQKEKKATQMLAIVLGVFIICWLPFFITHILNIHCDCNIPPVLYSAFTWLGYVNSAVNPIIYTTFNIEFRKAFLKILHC

For the compound `CCN(CC)CCCOc1ccc(-c2nc3ccccc3n2C/C=C/Cn2c(-c3ccc(OCCCN(CC)CC)cc3)nc3ccccc32)cc1` [Example 10, E-(3-{4-[1-(4-{2-[4-(3-Diethylaminopropoxy)phenyl]benzoimidazol-1-yl}but-2-enyl)-1H-benzoimidazol-2-yl]phenoxy}propyl)diethylamine], in test [1], the ED50 (usually the midpoint of the dose-response relation) was determined as 3.9 mg/kg. In test [2], the IC50 (commonly the midpoint of a concentration-inhibition curve) stood at 16 nM. In test [2], `CN(C)CCCOc1ccc(-c2nc3ccccc3n2C/C=C/Cn2c(-c3ccc(OCCCN(C)C)cc3)nc3ccccc32)cc1` [Example 5, E-(3-{4-[1-(4-{2-[4-(3-Dimethylaminopropoxy)phenyl]benzoimidazol-1-yl}but-2-enyl)-1H-benzoimidazol-2-yl]phenoxy}propyl)dimethylamine] had an IC50 of 143 nM. Turning to `CC(C)N(C)CCCOc1ccc(-c2nc3ccccc3n2C/C=C/Cn2c(-c3ccc(OCCCN(C)C(C)C)cc3)nc3ccccc32)cc1` [Example 9, E-Isopropyl-[3-(4-{1-[4-(2-{4-[3-(isopropylmethylamino)propoxy]phenyl}benzoimidazol-1-yl)but-2-enyl]-1H-benzoimidazol-2-yl}phenoxy)propyl]methylamine], the IC50 in test [2] was 6 nM; in test [3], 200 nM. In turn, `C(=C\Cn1c(-c2ccc(OCCCN3CCCCC3)cc2)nc2ccccc21)/Cn1c(-c2ccc(OCCCN3CCCCC3)cc2)nc2ccccc21` [Example 6] returned a half-inhibitory concentration (IC50) in test [2] of 9 nM.

Consider `C(=C\Cn1c(-c2ccc(OCCCN3CCCC3)cc2)nc2ccccc21)/Cn1c(-c2ccc(OCCCN3CCCC3)cc2)nc2ccccc21` [Example 1], for which the concentration for half-maximal inhibition (IC50) in test [2] came to 9 nM. This counts as single-digit nanomolar. `CCCCN(CCCC)CCCOc1ccc(-c2nc3ccccc3n2C/C=C/Cn2c(-c3ccc(OCCCN(CCCC)CCCC)cc3)nc3ccccc32)cc1` [Example 8, E-Dibutyl-(3-{4-[1-(4-{2-[4-(3-dibutylaminopropoxy)phenyl]benzoimidazol-1-yl}-but-2-enyl)-1H-benzoimidazol-2-yl]phenoxy}propyl)amine] registered an IC50 in test [3] of 427 nM. Take `NCCCOc1ccc(-c2nc3ccccc3n2C/C=C/Cn2c(-c3ccc(OCCCN4CCN(c5ccccc5)CC4)cc3)nc3ccccc32)cc1` [Example 15]: the IC50 amounted to 19 nM in test [2] and 803 nM in test [3]. Consider `CCN(CC)CCCOc1cccc(-c2nc3ccccc3n2C/C=C/Cn2c(-c3cccc(OCCCN(CC)CC)c3)nc3ccccc32)c1` [Example 7, E-(3-{3-[1-(4-{2-[3-(3-Diethylaminopropoxy)phenyl]benzoimidazol-1-yl}but-2-enyl)-1H-benzoimidazol-2-yl]phenoxy}propyl)diethylamine], for which the results for the IC50 in test [2] and in test [3] were 16 nM and 2450 nM, respectively.

For the compound `CCCN(CCC)CCCOc1ccc(-c2nc3ccccc3n2CCCCn2c(-c3ccc(OCCCN(CCC)CCC)cc3)nc3ccccc32)cc1` [Example 11, (3-{4-[1-(4-{2-[4-(3-Dipropylaminopropoxy)phenyl]benzoimidazol-1-yl}butyl)-1H-benzoimidazol-2-yl]phenoxy}propyl)dipropylamine], the IC50 in test [2] came out at 16 nM; in test [3], 2740 nM. The matching figures for `CCN1CCCC1CNC(=O)c1ccc(-c2nc3ccccc3n2CCCCn2c(-c3ccc(C(=O)NCC4CCCN4CC)cc3)nc3ccccc32)cc1` (centres unmarked) [Example 16]: 85 nM and 1430 nM. Turning to `CCCN(CCC)CCCOc1ccc(-c2nc3ccccc3n2C/C=C/Cn2c(-c3ccc(OCCCN(CCC)CCC)cc3)nc3ccccc32)cc1` [Example 2, E-(3-{4-[1-(4-{2-[4-(3-Dipropylaminopropoxy)phenyl]benzoimidazol-1-yl}but-2-enyl)-1H-benzoimidazol-2-yl]phenoxy}propyl)dipropylamine], the IC50 in test [2] came to 5 nM. `CCN(CC)CCCOc1ccc(-c2nc3ccccc3n2CCCCn2c(-c3ccc(OCCCN(CC)CC)cc3)nc3ccccc32)cc1` [Example 12, (3-{4-[1-(4-{2-[4-(3-Diethylaminopropoxy)phenyl]benzoimidazol-1-yl}butyl)-1H-benzoimidazol-2-yl]phenoxy}propyl)diethylamine] gave an ED50 in test [1] of 2.8 mg/kg. In addition, the values for the IC50 in test [2] and in test [3] were 36 nM and 1070 nM, respectively. As to `CCN(CC)CCNC(=O)c1ccc(-c2nc3ccccc3n2CCCCn2c(-c3ccc(C(=O)NCCN(CC)CC)cc3)nc3ccccc32)cc1` [Example 17], the 50% inhibitory concentration (IC50) in test [2] was determined as 110 nM; in test [3], 3070 nM. With `CCN(CC)CCCOc1ccc(-c2nc3ccccc3n2C/C=C/Cn2c(-c3ccccc3)nc3ccccc32)cc1` [Example 13, Diethyl-[3-(4-{1-[4-(2-phenylbenzoimidazol-1-yl)but-2-enyl]-1H-benzoimidazol-2-yl}phenoxy)propyl]amine], the IC50 in test [3] was 6430 nM.
